Target: T1, human vasopressin V1b receptor (Homo sapiens, UniProt P47901)
T1 construct: expressed in transfected cells; host or cells: CHO-K1 (cell line hV1b_3H2_CHO), membrane preparation
T1 sequence (P47901 1-424): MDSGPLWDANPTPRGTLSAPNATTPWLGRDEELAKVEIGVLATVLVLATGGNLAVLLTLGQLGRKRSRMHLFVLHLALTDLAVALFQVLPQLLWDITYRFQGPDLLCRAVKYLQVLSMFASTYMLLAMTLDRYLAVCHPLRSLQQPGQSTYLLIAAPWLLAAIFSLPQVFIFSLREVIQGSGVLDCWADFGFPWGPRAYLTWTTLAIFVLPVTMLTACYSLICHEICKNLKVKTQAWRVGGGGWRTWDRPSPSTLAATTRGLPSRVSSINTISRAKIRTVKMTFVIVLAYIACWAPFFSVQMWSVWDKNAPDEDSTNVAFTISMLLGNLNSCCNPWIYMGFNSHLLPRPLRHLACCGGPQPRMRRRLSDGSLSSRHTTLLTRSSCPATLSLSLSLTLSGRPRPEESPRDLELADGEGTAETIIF
Test: Vasopressin V1b receptor binding test
Settings: membranes of CHO-K1 cells with human V1b receptor, displacement of 1.5 nM 3H-AVP; for compounds with more than one stereogenic center the diastereomer with greater affinity
In short: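 Affinity constants (Ki) came from nonlinear regression of triplicate scintillation counts after filtration separated bound from free radioligand. Compounds competed at human V1b membranes for 60 min, room temperature, in pH 7.4 tris/MgCl2/BSA buffer with 2% DMSO; 1 μM AVP defined nonspecific binding.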

Row | SMILES | Ki [nM]
1 | COc1ccc(S(=O)(=O)N2C(=O)C(c3cc(CN4CCN(C)CC4)ccc3OC)(N3C[C@H](F)C[C@H]3c3ncco3)c3cc(C#N)ccc32)cc1 (stereo partly drawn) [Example 228, 5-Cyano-3-((2S,4R)-4-fluoro-2-oxazol-2-yl-pyrrolidin-1-yl)-1-(4-methoxybenzenesulfonyl)-3-[2-methoxy-5-(4-methylpiperazin-1-ylmethyl)phenyl]-1,3-dihydroindol-2-one] | 10 to 100
2 | COc1ccc(S(=O)(=O)N2C(=O)C(c3cc(CN4CCN(CCO)CC4)ccc3OC)(N3C[C@H](F)C[C@H]3c3ncco3)c3cc(C#N)ccc32)cc1 (stereo partly drawn) [Example 229, 5-Cyano-3-((2S,4R)-4-fluoro-2-oxazol-2-yl-pyrrolidin-1-yl)-3-{5-[4-(2-hydroxyethyl)piperazin-1-ylmethyl]-2-methoxyphenyl}-1-(4-methoxybenzenesulfonyl)-1,3-dihydroindol-2-one] | 10 to 100
3 | CCN1CCN(Cc2ccc(OC)c(C3(N4CCC[C@@]4(C)c4ncco4)C(=O)N(S(=O)(=O)c4ccc(OC)cc4)c4ccc(Cl)cc43)c2)CC1 (stereo partly drawn) [Example 232, 5-Chloro-3-[5-(4-ethylpiperazin-1-ylmethyl)-2-methoxyphenyl]-1-(4-methoxybenzenesulfonyl)-3-((S)-2-methyl-2-oxazol-2-yl-pyrrolidin-1-yl)-1,3-dihydroindol-2-one] | < 10

More lines, now with the values ahead:

Row | Ki [nM] | SMILES
4 | 10 to 100 | COc1ccc(S(=O)(=O)N2C(=O)C(c3cc(CN(C)C)ccc3OC)(N3C[C@H](F)C[C@H]3c3ncco3)c3cc(C#N)ccc32)cc1 (stereo partly drawn) [Example 230, 5-Cyano-3-(5-dimethylaminomethyl-2-methoxyphenyl)-3-((2S,4R)-4-fluoro-2-oxazol-2-yl-pyrrolidin-1-yl)-1-(4-methoxybenzenesulfonyl)-1,3-dihydroindol-2-one]
5 | < 10 | CCNCc1ccc(OC)c(C2(N3CCC[C@@]3(C)c3ncco3)C(=O)N(S(=O)(=O)c3ccc(OC)cc3)c3ccc(Cl)cc32)c1 (stereo partly drawn) [Example 231, 5-Chloro-3-(5-ethylaminomethyl-2-methoxyphenyl)-1-(4-methoxybenzenesulfonyl)-3-((S)-2-methyl-2-oxazol-2-yl-pyrrolidin-1-yl)-1,3-dihydroindol-2-one]
6 | 10 to 100 | COc1ccc(S(=O)(=O)N2C(=O)C(c3cc(CN4CCN(CCO)CC4)ccc3OC)(N3CCC[C@H]3c3ncc(C)o3)c3cc(Cl)ccc32)cc1 (stereo partly drawn) [Example 233, 5-Chloro-3-{5-[4-(2-hydroxyethyl)piperazin-1-ylmethyl]-2-methoxyphenyl}-1-(4-methoxybenzenesulfonyl)-3-[(S)-2-(5-methyloxazol-2-yl)-pyrrolidin-1-yl]-1,3-dihydroindol-2-one]
7 | 10 to 100 | COc1ccc(S(=O)(=O)N2C(=O)C(c3cc(CN(C)C)ccc3OC)(N3CCC[C@H]3c3ncc(C)o3)c3cc(Cl)ccc32)cc1 (stereo partly drawn) [Example 234, 5-Chloro-3-(5-dimethylaminomethyl-2-methoxyphenyl)-1-(4-methoxybenzenesulfonyl)-3-[(S)-2-(5-methyloxazol-2-yl)-pyrrolidin-1-yl]-1,3-dihydroindol-2-one]
8 | 10 to 100 | COc1ccc(S(=O)(=O)N2C(=O)C(c3cc(CN4CCN(C)CC4)ccc3OC)(N3CCC[C@H]3c3ncc(C)o3)c3cc(Cl)ccc32)cc1 (stereo partly drawn) [Example 235, 5-Chloro-1-(4-methoxybenzenesulfonyl)-3-[2-methoxy-5-(4-methylpiperazin-1-ylmethyl)phenyl]-3-[(S)-2-(5-methyloxazol-2-yl)-pyrrolidin-1-yl]-1,3-dihydroindol-2-one]
